Measurements as given in patent US20240415804A1, “METHOD OF TREATING PANCREATIC CANCER” (University of South Florida, priority 2022, published 2024).

System: CD8+ T cells and MHC-II+ cells
Assay: AKOYA-CODEX imaging of tumor sections of KC-HPC mice
Format: in vivo, mouse
Description: Next, the inventors examined the expression and infiltration of CD8^+ T cells and MHC-II^+ cells in the tumor sections of KC-HPC treated with vehicle or API and using AKOYA-CODEX which provides spatial capture of location and phenotype for multiple immune cells in the tumor. […] The inventors then observed, via 2D tSNE, increased CD8^+ T cell expression partially located within the tumor plots for the tumors of KC-HPC-API mice compared with vehicle treated KC-HPC mice (FIG. 15B). The poly-1-lysine coated coverslips containing 5-μm of Fresh Frozen (FF) tissue sections were stored at […] until use. At the staining time, FF tissue sections were baked for 30 min to 1 h at 55° C. According to Akoya Biosciences protocol, the FF tissues were dewaxed, deparaffinized in xylene then rehydrated in descending ethanol concentrations (100% twice, 90%, 70%, 50%, and 30%, respectively) and washed in ddH2O twice, each step for 5 min. Heat-induced epitope retrieval with antigen retrieval solution, pH 6, was performed using the pressure cooker at high-pressure protocol ([…]) for 20 min. After cooling at room temperature (RT) for 30 min to 1 h, the coverslips were washed in ddH2O twice for 2 min. […] The processed data were analyzed using the CODEX-MAV plugin in Image J. Then, nuclei segmentation was performed, followed by gating and clustering of the CD8+ T cells populations. […]

Q: Which results are given for `O=c1cc(-c2ccc(O)cc2)oc2cc(O)cc(O)c12` [API, 40,5,7-Trihydroxyflavone, 5,7-Dihydroxy-2-(4-hydroxyphenyl)-4-benzopyrone]?
A: MHC-II+ cells in tumor sections (2D UMAP) (API treated KC-HPC mice, non-detectable in KC-HPC mice): increase; CD8+ T cell expression in tumor sections (2D tSNE) (KC-HPC-API vs vehicle treated KC-HPC mice): increased
